Results taken from patent US9790228B2, “Heterocyclic kinase inhibitors” (Intellikine LLC, priority 2008, dated 2017).

Columns and labels:
p110δ/p85α = p110δ/p85α (Homo sapiens (Human), UniProt O00329); experiment: PI3K δ inhibition assay (TLC lipid kinase or HTRF); type: biochemical
Summary of the method: (§1)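 IC50 from TLC lipid kinase assay (25 mM HEPES pH 7.4, 10 mM MgCl2, 100 μg/ml phosphatidylinositol, 10 or 100 μM γ-32P-ATP, 5 min RT, phosphorimager) at 10–12 two-fold dilutions, or HTRF (10 μM PIP2, 10 μM ATP, 1 h RT) measuring PIP3 by TR-FRET; 2% DMSO final.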

p110γ = p110γ (Homo sapiens (Human), UniProt P48736); experiment: PI3K γ inhibition assay (TLC lipid kinase or HTRF); type: biochemical
Summary of the method: as §1

p110α/p85α = p110α/p85α (Homo sapiens (Human), UniProt P42336); experiment: PI3K α inhibition assay (TLC lipid kinase or HTRF); type: biochemical
Summary of the method: as §1

p110β/p85α = p110β/p85α (Homo sapiens, UniProt P42338); experiment: PI3K β inhibition assay (TLC lipid kinase or HTRF); type: biochemical; settings: read-out: PI3K β IC50
Summary of the method: as §1

Balb/c splenic B cells = experiment: B cell activation and proliferation assay (Alamar Blue); type: cell-based, mouse; settings: Mus musculus, B-cell
Summary of the method: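 Purified Balb/c splenic B cells, 50,000/well, pretreated with compound 30 min (0.2% DMSO), then stimulated with 10 ug/ml LPS or 5 ug/ml anti-IgM F(ab′)2 plus 2 ng/ml IL4 (cocktail concentrations) for 72 h at 37 °C. Alamar Blue 5 h, fluorescence 560/590 nm; IC50/EC50 calculated.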

p110γ, sequence (P48736 whole entry): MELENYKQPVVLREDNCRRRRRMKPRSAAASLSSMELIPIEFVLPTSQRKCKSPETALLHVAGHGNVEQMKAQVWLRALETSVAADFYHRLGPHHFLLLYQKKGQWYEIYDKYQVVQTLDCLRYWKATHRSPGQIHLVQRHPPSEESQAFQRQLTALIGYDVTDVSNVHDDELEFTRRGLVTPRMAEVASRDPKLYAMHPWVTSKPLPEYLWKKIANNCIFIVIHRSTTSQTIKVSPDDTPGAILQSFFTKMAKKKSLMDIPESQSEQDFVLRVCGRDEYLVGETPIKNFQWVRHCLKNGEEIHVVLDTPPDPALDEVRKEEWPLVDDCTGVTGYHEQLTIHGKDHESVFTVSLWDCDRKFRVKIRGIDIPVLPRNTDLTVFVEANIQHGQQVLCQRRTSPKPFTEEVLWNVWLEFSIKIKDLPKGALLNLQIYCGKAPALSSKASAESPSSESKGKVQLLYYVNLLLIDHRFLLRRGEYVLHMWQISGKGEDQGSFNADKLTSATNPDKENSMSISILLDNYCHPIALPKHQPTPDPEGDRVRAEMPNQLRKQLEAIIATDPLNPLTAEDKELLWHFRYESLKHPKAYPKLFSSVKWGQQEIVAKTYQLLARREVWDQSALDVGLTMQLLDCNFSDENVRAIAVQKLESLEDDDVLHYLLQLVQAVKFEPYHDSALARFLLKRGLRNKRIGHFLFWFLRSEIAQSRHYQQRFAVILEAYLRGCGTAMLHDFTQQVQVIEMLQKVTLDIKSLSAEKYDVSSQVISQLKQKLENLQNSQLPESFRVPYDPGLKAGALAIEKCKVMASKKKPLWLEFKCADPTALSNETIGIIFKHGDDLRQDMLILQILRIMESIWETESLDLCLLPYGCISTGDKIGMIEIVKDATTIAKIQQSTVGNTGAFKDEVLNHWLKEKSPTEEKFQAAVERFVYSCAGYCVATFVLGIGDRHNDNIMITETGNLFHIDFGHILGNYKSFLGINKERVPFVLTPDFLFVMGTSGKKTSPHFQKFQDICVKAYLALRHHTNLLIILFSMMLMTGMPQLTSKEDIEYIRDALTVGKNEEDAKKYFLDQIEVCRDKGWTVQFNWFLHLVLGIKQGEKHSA
p110α/p85α, sequence (P42336 whole entry): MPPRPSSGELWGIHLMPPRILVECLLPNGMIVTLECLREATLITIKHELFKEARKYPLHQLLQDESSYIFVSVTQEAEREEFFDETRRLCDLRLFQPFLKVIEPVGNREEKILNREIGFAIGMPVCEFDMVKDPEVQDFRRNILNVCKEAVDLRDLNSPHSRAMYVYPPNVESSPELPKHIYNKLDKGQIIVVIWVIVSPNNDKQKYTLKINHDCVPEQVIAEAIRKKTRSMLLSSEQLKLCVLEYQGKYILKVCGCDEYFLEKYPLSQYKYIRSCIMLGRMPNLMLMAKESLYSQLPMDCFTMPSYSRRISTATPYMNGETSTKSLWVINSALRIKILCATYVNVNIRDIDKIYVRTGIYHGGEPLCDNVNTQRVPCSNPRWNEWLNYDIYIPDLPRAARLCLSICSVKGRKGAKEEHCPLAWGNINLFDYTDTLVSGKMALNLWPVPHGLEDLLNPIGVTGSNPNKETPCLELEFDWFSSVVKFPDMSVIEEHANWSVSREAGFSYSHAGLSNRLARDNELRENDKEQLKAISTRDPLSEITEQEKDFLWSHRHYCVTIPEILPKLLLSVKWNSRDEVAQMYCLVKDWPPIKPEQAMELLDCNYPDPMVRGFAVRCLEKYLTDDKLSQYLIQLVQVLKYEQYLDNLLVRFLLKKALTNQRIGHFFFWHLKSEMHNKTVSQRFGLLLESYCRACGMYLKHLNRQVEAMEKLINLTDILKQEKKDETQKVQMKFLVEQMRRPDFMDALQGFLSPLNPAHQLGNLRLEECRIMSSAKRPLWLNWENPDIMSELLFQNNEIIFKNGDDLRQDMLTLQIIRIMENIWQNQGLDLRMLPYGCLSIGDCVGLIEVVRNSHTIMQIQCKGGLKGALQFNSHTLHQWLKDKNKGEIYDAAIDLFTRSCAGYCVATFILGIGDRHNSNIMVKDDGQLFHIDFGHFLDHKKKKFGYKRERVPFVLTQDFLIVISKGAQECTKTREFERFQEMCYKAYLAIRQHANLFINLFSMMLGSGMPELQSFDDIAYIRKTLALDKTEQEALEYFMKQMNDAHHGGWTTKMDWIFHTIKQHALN
p110α/p85α, sequence (P27986 whole entry partner): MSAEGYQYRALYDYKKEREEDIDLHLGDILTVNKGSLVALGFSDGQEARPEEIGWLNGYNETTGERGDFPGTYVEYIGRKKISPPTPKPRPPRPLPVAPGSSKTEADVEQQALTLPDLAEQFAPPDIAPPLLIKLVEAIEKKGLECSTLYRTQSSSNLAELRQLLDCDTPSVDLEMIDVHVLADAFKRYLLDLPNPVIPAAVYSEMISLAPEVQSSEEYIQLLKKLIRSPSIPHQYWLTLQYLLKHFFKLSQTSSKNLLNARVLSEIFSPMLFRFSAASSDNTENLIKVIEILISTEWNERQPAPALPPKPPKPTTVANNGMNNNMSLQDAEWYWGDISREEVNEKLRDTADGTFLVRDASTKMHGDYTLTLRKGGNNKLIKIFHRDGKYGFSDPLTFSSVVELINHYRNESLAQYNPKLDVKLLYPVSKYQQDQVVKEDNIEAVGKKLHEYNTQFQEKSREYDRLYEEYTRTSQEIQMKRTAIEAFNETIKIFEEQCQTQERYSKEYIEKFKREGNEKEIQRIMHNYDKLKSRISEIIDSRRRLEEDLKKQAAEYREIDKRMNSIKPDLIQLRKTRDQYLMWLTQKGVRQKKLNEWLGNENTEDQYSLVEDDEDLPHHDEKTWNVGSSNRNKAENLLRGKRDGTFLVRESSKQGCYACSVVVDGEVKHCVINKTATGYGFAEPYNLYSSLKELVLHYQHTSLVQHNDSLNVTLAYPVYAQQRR
p110δ/p85α, sequence (O00329 whole entry): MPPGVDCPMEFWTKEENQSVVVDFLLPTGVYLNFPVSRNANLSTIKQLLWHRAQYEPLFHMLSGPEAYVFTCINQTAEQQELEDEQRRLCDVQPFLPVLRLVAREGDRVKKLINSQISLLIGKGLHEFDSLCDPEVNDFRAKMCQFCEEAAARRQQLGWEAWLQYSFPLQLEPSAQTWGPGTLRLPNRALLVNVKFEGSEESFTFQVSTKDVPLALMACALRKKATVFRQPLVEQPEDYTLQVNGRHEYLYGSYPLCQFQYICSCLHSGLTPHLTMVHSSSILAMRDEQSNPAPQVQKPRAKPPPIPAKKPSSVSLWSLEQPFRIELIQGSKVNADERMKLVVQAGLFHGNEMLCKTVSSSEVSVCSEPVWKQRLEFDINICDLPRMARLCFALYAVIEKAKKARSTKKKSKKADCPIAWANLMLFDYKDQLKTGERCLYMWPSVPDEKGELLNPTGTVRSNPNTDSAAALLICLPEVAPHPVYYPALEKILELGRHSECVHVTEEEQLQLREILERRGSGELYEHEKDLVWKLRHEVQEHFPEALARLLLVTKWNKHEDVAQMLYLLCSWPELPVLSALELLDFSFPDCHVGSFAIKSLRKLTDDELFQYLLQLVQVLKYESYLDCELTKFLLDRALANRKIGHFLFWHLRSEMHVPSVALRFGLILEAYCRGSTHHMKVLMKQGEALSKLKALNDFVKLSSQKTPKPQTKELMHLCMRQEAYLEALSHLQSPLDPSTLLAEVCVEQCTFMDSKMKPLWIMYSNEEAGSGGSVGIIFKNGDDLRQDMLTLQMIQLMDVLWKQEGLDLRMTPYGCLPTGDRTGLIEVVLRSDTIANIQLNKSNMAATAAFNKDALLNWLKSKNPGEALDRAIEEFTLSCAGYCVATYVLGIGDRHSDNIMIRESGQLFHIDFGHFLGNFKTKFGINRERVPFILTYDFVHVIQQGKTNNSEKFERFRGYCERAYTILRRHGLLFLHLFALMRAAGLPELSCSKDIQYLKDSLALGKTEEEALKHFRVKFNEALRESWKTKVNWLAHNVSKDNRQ
p110δ/p85α, sequence (P27986 whole entry partner): as the sequence (P27986 whole entry partner) above
p110β/p85α, sequence (P42338 whole entry, looked up): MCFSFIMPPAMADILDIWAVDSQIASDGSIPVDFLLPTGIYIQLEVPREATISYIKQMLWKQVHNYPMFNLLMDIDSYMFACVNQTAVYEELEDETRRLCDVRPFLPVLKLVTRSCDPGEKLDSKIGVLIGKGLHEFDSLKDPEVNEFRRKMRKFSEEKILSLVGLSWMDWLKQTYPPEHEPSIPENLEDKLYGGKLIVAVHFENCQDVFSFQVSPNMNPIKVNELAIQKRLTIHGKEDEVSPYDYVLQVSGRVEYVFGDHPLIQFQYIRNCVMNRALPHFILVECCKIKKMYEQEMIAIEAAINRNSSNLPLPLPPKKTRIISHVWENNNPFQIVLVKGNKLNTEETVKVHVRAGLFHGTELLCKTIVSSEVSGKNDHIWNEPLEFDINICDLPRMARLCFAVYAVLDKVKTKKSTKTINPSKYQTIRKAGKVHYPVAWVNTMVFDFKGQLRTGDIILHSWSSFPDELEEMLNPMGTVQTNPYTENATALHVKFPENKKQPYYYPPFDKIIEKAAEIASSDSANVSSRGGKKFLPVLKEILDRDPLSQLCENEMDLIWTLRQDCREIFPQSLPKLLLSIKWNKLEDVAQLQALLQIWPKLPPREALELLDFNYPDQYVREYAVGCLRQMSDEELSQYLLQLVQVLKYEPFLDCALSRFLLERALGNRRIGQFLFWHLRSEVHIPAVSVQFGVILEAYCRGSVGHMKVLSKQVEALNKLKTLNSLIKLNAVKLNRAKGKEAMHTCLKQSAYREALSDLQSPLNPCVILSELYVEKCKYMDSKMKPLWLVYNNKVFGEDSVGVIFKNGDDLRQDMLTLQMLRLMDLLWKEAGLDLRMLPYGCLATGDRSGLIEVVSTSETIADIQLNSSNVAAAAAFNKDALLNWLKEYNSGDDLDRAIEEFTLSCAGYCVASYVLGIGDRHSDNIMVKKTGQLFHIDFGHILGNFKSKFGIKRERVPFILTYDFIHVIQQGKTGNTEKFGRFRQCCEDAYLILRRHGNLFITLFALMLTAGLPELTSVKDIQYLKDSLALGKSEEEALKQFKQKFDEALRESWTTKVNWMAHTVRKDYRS

Structure (SMILES)	IC50 (p110δ/p85α) [nM]	IC50 (p110γ) [nM]	IC50 (p110α/p85α) [nM]	IC50 (p110β/p85α) [nM]	EC50 (Balb/c splenic B cells) [nM]
Cc1ccccc1-c1nc2ccccc2cc1Cn1nc(-c2ccc3ncnc(N)c3c2)c2c(N)ncnc21 [Compound 134]	< 100	< 100	> 1000	> 1000	100 to 1000
Nc1nc2ccc(-c3nn(Cc4cc5ccccc5nc4-c4ccccc4F)c4ncnc(N)c34)cc2s1 [Compound 85]	< 100	< 100	100 to 1000	> 1000	< 100
CN1CCN(c2nc3ccccc3cc2Cn2nc(-c3cccc(O)c3)c3c(N)ncnc32)CC1 [Compound 43]	< 100	> 1000	> 1000	100 to 1000	100 to 1000
Nc1ncnc2c1c(-c1cc(O)cc(F)c1)nn2Cc1cc2ccccc2nc1-c1ccccc1 [Compound 57]	< 100	< 100	100 to 1000	100 to 1000	< 100
CC(=O)Nc1nc2ccc(-c3nn(Cc4cc5ccccc5nc4N4CCN(C)CC4)c4ncnc(N)c34)cc2s1 [Compound 70]	< 100	100 to 1000	100 to 1000	< 100	< 100
Cc1ccccc1-c1nc2ccccc2cc1Cn1nc(-c2ccc3nc(N)ccc3c2)c2c(N)ncnc21 [Compound 131]	< 100	< 100	100 to 1000	> 1000	100 to 1000
Cc1ccncc1-c1nc2ccccc2cc1Cn1nc(-c2cc(O)cc(F)c2)c2c(N)ncnc21 [Compound 56]	< 100	< 100	> 1000	> 1000	< 100
Nc1ncnc2c1c(-c1cn[nH]c1)nn2Cc1cc2ccccc2nc1-c1ccccc1 [Compound 180]	< 100	100 to 1000	> 1000	> 1000	100 to 1000
Nc1ncnc2c1c(-c1cccc(O)c1)nn2Cc1nc2ccccc2nc1N1CCCC1 [Compound 105]	< 100	100 to 1000	> 1000	> 1000	100 to 1000
CC(C)N1CCN(c2nc3ccccc3cc2Cn2nc(-c3cc(O)cc(F)c3)c3c(N)ncnc32)CC1 [Compound 69]	< 100	> 1000	> 1000	> 1000	< 100
CC(c1cc2ccccc2nc1-c1ccccc1)n1nc(C#C[C@@H](C)O)c2c(N)ncnc21 (some centres unmarked) [Compound 71]	< 100	> 1000	> 1000	> 1000	100 to 1000
Nc1ncnc2c1c(/C=C1/SC(=O)NC1=O)nn2Cc1cc2ccccc2nc1-c1ccccc1F [Compound 192]	< 100	< 100	> 1000	> 1000	100 to 1000
Nc1nc2ccc(-c3nn(Cc4cc5ccccc5nc4-c4ccccc4)c4ncnc(N)c34)cc2s1 [Compound 94]	< 100	< 100	> 1000	> 1000	100 to 1000
Cc1cccc2cc(Cn3nc(I)c4c(N)ncnc43)c(N3CCCC3)nc12 [Compound 6]	< 100	> 1000	> 1000	> 1000	100 to 1000
CCC(c1cc2ccccc2nc1N1CCCC1)n1nc(-c2cccc(O)c2)c2c(N)ncnc21 (centres unmarked) [Compound 39]	< 100	> 1000	> 1000	> 1000	< 100
Nc1ncc2cc(-c3nn(Cc4cc5ccccc5nc4-c4ccccc4)c4ncnc(N)c34)ccc2n1 [Compound 143]	< 100	< 100	100 to 1000	> 1000	< 100

Structure (SMILES)	IC50 (p110δ/p85α) [nM]	IC50 (p110γ) [nM]	IC50 (p110α/p85α) [nM]	IC50 (p110β/p85α) [nM]	EC50 (Balb/c splenic B cells) [nM]
Cc1ccccc1-c1nc2ccccc2nc1Cn1nc(-c2cc(O)cc(F)c2)c2c(N)ncnc21 [Compound 107]	< 100	> 1000	> 1000	> 1000	< 100
Cc1ccccc1-c1nc2ccccc2cc1Cn1nc(-c2cccc(O)c2)c2c(N)ncnc21 [Compound 5]	< 100	100 to 1000	> 1000	> 1000	100 to 1000
Nc1ncc2cc(-c3nn(Cc4cc5ccccc5nc4N4CCOCC4)c4ncnc(N)c34)ccc2n1 [Compound 139]	< 100	< 100	< 100	< 100	< 100
Nc1ncnc2ccc(-c3nn(Cc4cc5ccccc5nc4-c4ccccc4)c4ncnc(N)c34)cc12 [Compound 146]	< 100	< 100	> 1000	> 1000	100 to 1000
CC(=O)Nc1nc2ccc(-c3nn(Cc4cc5ccccc5nc4CCN4CCN(C)CC4)c4ncnc(N)c34)cc2s1 [Compound 169]	< 100	100 to 1000	100 to 1000	100 to 1000	< 100
Cc1ccccc1-c1nc2ccccc2cc1Cn1nc(-c2cc(O)cc(F)c2)c2c(N)ncnc21 [Compound 4]	< 100	< 100	> 1000	> 1000	< 100
Nc1ncnc2c1c(I)nn2Cc1cc2ccccc2nc1N1CCCC1 [Compound 1]	< 100	< 100	> 1000	> 1000	100 to 1000
Cc1ccccc1-c1nc2ccccc2cc1Cn1nc(-c2ccc3nc(N)ncc3c2)c2c(N)ncnc21 [Compound 132]	< 100	< 100	< 100	100 to 1000	< 100
CC(Nc1ncnc2[nH]cnc12)c1cc2ccccc2nc1N1CCN(C)CC1 (centres unmarked) [Compound 82]	< 100	> 1000	> 1000	> 1000	< 100
CC(C)Oc1nc2ccccc2cc1Cn1nc(-c2cc(O)cc(F)c2)c2c(N)ncnc21 [Compound 156]	< 100	100 to 1000	> 1000	> 1000	100 to 1000
CC(=O)Nc1nc2ccc(-c3nn(Cc4cc5ccccc5nc4CCN4CCCC4)c4ncnc(N)c34)cc2s1 [Compound 166]	< 100	100 to 1000	100 to 1000	> 1000	< 100
Nc1ncnc2c1c(-c1cc(O)cc(F)c1)nn2Cc1cc2ccccc2nc1Cl [Compound 54]	< 100	100 to 1000	> 1000	> 1000	< 100
Cc1ccccc1-c1nc2ccccc2cc1Cn1nc(I)c2c(N)ncnc21 [Compound 3]	< 100	100 to 1000	> 1000	> 1000	100 to 1000
CC(=O)Nc1nc2ccc(-c3nn(Cc4cc5ccccc5nc4-c4ccccc4F)c4ncnc(N)c34)cc2s1 [Compound 83]	< 100	< 100	> 1000	> 1000	< 100
CC(c1cc2ccccc2nc1-c1ccccc1)n1nc(-c2cccc(O)c2)c2c(N)ncnc21 (centres unmarked) [Compound 59]	< 100	100 to 1000	> 1000	> 1000	< 100
